What was measured:
C2C12 myotubes = conditions: cited from earlier work
[1] = after HMB is fed; cited from earlier work
[2] = tested on: protein degradation in muscle; test: Urinary 3-methylhistidine to creatinine ratio after an acute exercise bout; type: in vivo, human
Protocol: (§1) Subjects: We conducted a study at the Iowa State University Health and Human Performance Laboratory; this study was approved by the Iowa State University Institutional Review Board, and was registered at ClinicalTrials.gov (NCT01150526). We recruited 12 men and 13 women between the ages of 20 and 36 from the Iowa State University community and surrounding area.
(§2) Treatments: The experimental design is depicted in FIG. 8.
Five treatments were administered as follows: Treatment 1: Placebo. This group received a placebo capsule and a placebo syringe dosage at each dosage administration. Treatment 2: CaHMB pre-exercise. This group received a CaHMB capsule and a placebo syringe dosage 30 min prior to the acute exercise bout. The remaining additional dosages during the study consisted of one placebo capsule and one placebo syringe dosage. Treatment 3: HMB-acid gel pre-exercise. This group received a placebo capsule and a syringe dosage of HMB-acid gel 30 min prior to the acute exercise bout. The remaining additional dosages during the study consisted of one placebo capsule and one placebo syringe dosage. Treatment 4: CaHMB pre- and post-exercise. This group received a CaHMB capsule and a placebo syringe dosage at all administration times during the study. Treatment 5: HMB-acid gel pre- and post-exercise. This group received a syringe dosage of HMB-acid gel and one placebo capsule at all administration times during the study.
To blind the treatments to both the researchers and subjects, each subject took a capsule and syringe dosage of supplement at each administration. The capsules contained either one gram of calcium lactate (Placebo) or one gram of calcium β-hydroxy-β-methylbutryate (CaHMB). The syringe dosages were formulated to be similar in taste and appearance and contained either 0.8 g of corn syrup (Placebo) or 0.8 g of β-hydroxy-β-methylbutryate free acid, the same amount of HMB as in the capsule dosage. The 3 daily doses provided the same total HMB dosage (2.4 g as calcium HMB in the capsules or 2.4 g as HMB free acid in the syringes).
Eccentric Exercise Bout: Subjects refrained from vigorous exercise for three days before reporting to the laboratory. All subjects were studied after an overnight fast. […] Subjects then consumed their assigned supplement and 30 minutes later the eccentric exercise session was performed. The exercise consisted of 50 maximal effort contractions of knee extensors while attempting to resist the Biodex lever arm as it moves the knee joint from full extension to 90 degrees flexion; this is similar to letting a heavy weight down slowly while in a seated position. Each contraction lasted about 2 seconds and 12 seconds were allowed between contractions. This protocol was performed on the right leg followed by the left leg. The subjects received 2 more daily dosages of treatment (placebo or HMB) with instructions to take the dosages at lunch and dinner. For the next 4 days the subjects returned to the laboratory fasted each morning, had blood taken and urine collected and then consumed the morning dosage of their supplement. The subjects were again given the 2 remaining daily supplement dosages with instructions to take them at lunch and dinner.
Serum and Urine Samples: A fasting blood sample was taken from a superficial forearm vein each morning when the subjects reported to the laboratory for testing. Additionally a clean catch urine sample was collected at this time. Serum CPK was analyzed by a commercial laboratory (Quest Diagnostics, Madison N.J.). Urine 3-Methylhistidine (3MH) was analyzed by a previously published GC/MS method (9). Urinary creatinine was analyzed by colorimetric assay (Cayman Chemical Company, Ann Arbor, Mich.). The urinary 3MH data was normalized to urinary creatinine and expressed as 3MH:creatinine ratio, μmol:mg.
(§3) Statistics: Data were analyzed using the mixed model procedure in Statistical Analysis System for Windows (Release 9.1.3, SAS Institute, Cary, N.C.). […]

muscle damage = test: Serum CPK after an acute eccentric exercise bout; type: in vivo, human; conditions: pre- and post exercise dosing (Treatment 5)
Protocol: as §1, §2
Five treatments were administered as follows: Treatment 1: Placebo. This group received a placebo capsule and a placebo syringe dosage at each dosage administration. Treatment 2: CaHMB pre-exercise. […]
Serum and Urine Samples: A fasting blood sample was taken from a superficial forearm vein each morning when the subjects reported to the laboratory for testing. […] Serum CPK was analyzed by a commercial laboratory (Quest Diagnostics, Madison N.J.). Urine 3-Methylhistidine (3MH) was analyzed by a previously published GC/MS method (9). Urinary creatinine was analyzed by colorimetric assay (Cayman Chemical Company, Ann Arbor, Mich.). The urinary 3MH data was normalized to urinary creatinine and expressed as 3MH:creatinine ratio, μmol:mg.
as §3

[3] = Study 2: plasma HMB and urinary HMB excretion over 24 h; type: in vivo, human
Description: Human subjects. In study 1, four male and four female college-aged subjects were studied. In study 2, an additional four male and four female college-aged subjects were studied. The protocols for both studies were approved by the Iowa State University IRB and each subject gave informed consent to participate in the study. Due to the nature of the treatments, neither the subjects nor the researchers could be blinded.
Treatments. The same treatments were given to the subjects in both study groups. The three treatments were given in random order to each subject with at least a one week washout period between treatments. The treatments were supplied by Metabolic Technologies, Inc. (MTI, Ames, Iowa) and were prepared with food grade ingredients. One gram of CaHMB or the equivalent HMB in free acid in a gel form was administered to the subjects. The CaHMB capsules were obtained from a commercial supplement manufacturer (Optimum Nutrition, Aurora, Ill.) while the HMB-acid gel was prepared at MTI laboratories. Briefly, the HMB-acid was adjusted to a pH 4.5 with potassium carbonate (K2CO3) and flavors and sweeteners were then added. The 1.0 g CaHMB capsule was taken with 355 mL of water (approx. 12 oz.). The free acid gel dosage was 0.80 g and was equivalent to the free acid contained in the CaHMB in the capsule. The free acid gel treatments were either swallowed (FASW) or held sublingual for 15 seconds and then swallowed (FASL). FASW consisted of expelling the entire dose into the mouth in a 3 ml syringe, swallowing, and then following this with 355 mL of water. FASL subjects were instructed to place the entire dosage under the tongue and hold the dosage for 15 sec before swallowing. They then rinsed and followed the dose with 355 mL of water.
Study 2 design. Study 2 was conducted similar to study 1 with the following modifications. In study 2, plasma levels of HMB were measured for 1440 min (24 h) and total urine collection was also performed for measurement of urinary HMB excretion during this period. After the 180 min blood sample, the subjects were allowed to leave the laboratory and were instructed to return to the laboratory for additional blood samples at 360, 720, and 1440 min after the ingestion of the supplement. As in study 1, each subject took each of the treatments with at least a one week washout period between treatments. Samples were again stored frozen at −70° C. for analysis of plasma and urinary HMB concentrations. Pre-ingestion, 180 min and 1440 min blood samples were again assayed for the same measurements already for study 1. Subjects were provided with a standardized lunch after the 180 min blood sampling and instructed to eat this at approximately 240 min post ingestion. Following the 720 min blood sample, subjects were instructed to eat a normal evening meal before 10 pm. Subjects reported back to the laboratory the following morning for the fasted 1440 min blood sample. A urine collection container was provided and subjects collected all urine produced during the experimental 24 h experimental period. The urine was stored refrigerated when not being collected. Urine volumes were measured and samples of the total urine collection were taken and stored frozen at −70° C. until analyzed for HMB.
HMB analysis. Plasma and urine HMB were analyzed by gas chromatography/mass spectrometry (GC/MS) as previously described.(27)
Calculations and statistics. Areas under the curves were calculated for each subject using the trapezoidal method that sums the area above baseline.(51) Half-life of plasma HMB was calculated for study 2. The following equations were used:
k=(ln(Cpeak)−ln(Ctrough))/Tinterval
Peak plasma concentrations for each subject were used for Cpeak. […] Tpeak was the time at which Cpeak was measured and Tinterval is the time from Tpeak until the time at Ctrough (720 min). The extracellular fluid compartment was assumed to be 20% of body weight and calculated using equation 3 below(1). […]

CC(C)C[C@H](N)C(=O)O [leucine]
phosphorylation of S6K1Thr389 (C2C12 myotubes): +17%

CC(C)(O)CC(=O)O [HMB, β-Hydroxy-β-methylbutyrate]
phosphorylation of 4EBP1Thr65/70 (C2C12 myotubes): +51% | phosphorylation of AKTSer473 (C2C12 myotubes): +129% | phosphorylation of S6K1Thr389 (C2C12 myotubes): +50% | AKT phosphorylation (C2C12 myotubes; incubation with rapamycin): +188% | loss of HMB to urine [1]: 20-50%

CC(C)(O)CC(=O)O [HMB-acid gel, β-hydroxy-β-methylbutryate free acid]
3MH:Cr ([2]; Baseline, dosed pre- and post exercise (Treatments 4, 5)): 0.225 ± 0.034 µmol/mg | 3MH:Cr ([2]; Baseline, dosed pre-exercise only (Treatments 2, 3)): 0.173 ± 0.028 µmol/mg | 3MH:Cr ([2]; at 24 h, dosed pre- and post exercise (Treatments 4, 5)): 0.213 ± 0.025 µmol/mg | 3MH:Cr ([2]; at 24 h, dosed pre-exercise only (Treatments 2, 3)): 0.213 ± 0.037 µmol/mg | 3MH:Cr ([2]; at 48 h, dosed pre- and post exercise (Treatments 4, 5)): 0.208 ± 0.012 µmol/mg | 3MH:Cr ([2]; at 48 h, dosed pre-exercise only (Treatments 2, 3)): 0.190 ± 0.014 µmol/mg | 3MH:Cr ([2]; at 72 h, dosed pre- and post exercise (Treatments 4, 5)): 0.175 ± 0.013 µmol/mg | 3MH:Cr ([2]; at 72 h, dosed pre-exercise only (Treatments 2, 3)): 0.172 ± 0.013 µmol/mg | 3MH:Cr ([2]; at 96 h, dosed pre- and post exercise (Treatments 4, 5)): 0.186 ± 0.043 µmol/mg | 3MH:Cr ([2]; at 96 h, dosed pre-exercise only (Treatments 2, 3)): 0.202 ± 0.020 µmol/mg | protein degradation (3MH:Cr ratio), trend ([2]; pre- and post exercise dosing): no increase and even a decrease in protein degradation | blunting of the exercise-induced increase in serum CPK (muscle damage; 24 h post exercise, P<0.03): up to 64% | blunting of the exercise-induced increase in serum CPK (muscle damage; 48 h post exercise, P<0.005): 86% | increase in HMB plasma clearance compared with CaHMB ([3]; Study 2): 25% | AUC greater than for CaHMB capsules ([3]; Study 2, over 24 hours, listed as free acid gel): +14.8% | estimated amount of HMB retained greater than CaHMB ([3]; based upon plasma clearance): 25% | peak plasma level earlier than with CaHMB ([3]; free acid versus CaHMB): ~90 min | plasma level relative to oral CaHMB ([3]; peak levels): ~2 fold

— US20210113501A1, “METHOD OF ADMINISTERING BETA-HYDROXY-BETA-METHYLBUTYRATE (HMB)” (Metabolic Technologies, Inc., priority 2009, published 2021)
